Source: patent publication US20260200982A1, “HER RECEPTOR DERIVED PEPTIDES AND METHODS OF USE THEREOF” (Ramot at Tel-Aviv University Ltd., priority 2022, published 2026)
Bridges are numbered along the chain shown (N, C = ends). Primed or numbered codes have the meaning given here. Where no end group is shown, it is not given here. [ ]: non-standard residue; d: D form. The star is where a group is joined. FITC′ = fluorescein isothiocyanate; Myristoyl = CCCCCCCCCCCCCC(=O)*; S5 = C=CCCC[C@](C)(N)C(=O)O

Legend:
Type in all cases: cell-based, human
MCF7 breast cancer cells = settings: 72 hours; for MCF7 cell viability: 10 μM peptide, FIGS. 6A-B
From the text: (§1) Cell lines—Human breast cancer cell lines SKBR3 [Peles E et al. EMBO J. (1993) 12(3):961-71] and MCF7 [Faigenbloom L et al., Mol Syst Biol. (2015) 11(12):845] and human glioblastoma U87 [Goldberg L et al. Cancer Res. (2006) 66(24):11709-17] cell line, as well as Rat-1 fibroblast cells and H-Ras-transformed Rat-1 cells (EJ cells) [Marom M et al. J Biol Chem. (1995) 270(38):22263-70] and human Panc-1 and MIA PaCa-2 pancreatic cell lines (Rak R et al. Oncoscience. 2014 1(1):39-48; Weisz B et al. Oncogene (1999) 18, 2579±2588) were all grown in Dulbecco's modified Eagle's medium (DMEM; Biological Industries, Beithaemek, Israel). Human colorectal cancer cell lines DLD-1 (ATTC Cat No. CCL-221), HCT-116 (ATTC Cat No. CCL-247) and LNCaP prostate cancer cells were grown in Roswell Park Memorial Institute 1640 (RPMI 1640) medium and McCoy's 5A media, respectively (Sigma-Aldrich). All media were supplemented with antibiotics and 10% heat-inactivated fetal bovine serum (FBS; Gibco). Human breast cell line MCF10A [Bott A et al. Oncotarget. (2017) 8(27):43897-43914] was grown in Dulbeco's Modified Eagle's Medium/Nutrient Mixture F-12 HAM medium (DMEM F-12 HAM; Sigma-Aldrich), supplemented with antibiotics, 5% inactivated horse serum (HS; Invitrogen), 2 mM L-glutamine (Biological Industries, Beithaemek, Israel), 0.1 μg/ml cholera toxin (Sigma-Aldrich), 0.5 μg/ml hydrocortisone (Sigma-Aldrich), 10 μg/ml insulin (Biological Industries, Beithaemek, Israel) and 2 ng/ml EGF (R&D Systems). Cells were incubated at 37° C. in 5% CO2 in air, and the medium was changed every 3-4 days. Cells were passaged in trypsin/disodium ethylenediaminetetraacetic acid (Biological Industries, Beithaemek, Israel) when confluency reached 70%. One day prior to treatment the cells were plated at ~50% confluency in a medium supplemented with 10% FBS or 5% HS, accordingly.
(§2) Methylene blue viability assay—Cells were plated in 96-wells plates at cell densities of 1.5×10^3 (EJ, DLD-1), 3×10^3 (Rat-1, HCT-116, U87), 5×10^3 (SKBR3, MCF7) and 6×10^3 (MCF10A) cells/well. […] Cell number determination was performed as described previously. IC-50 values were calculated using a non-linear regression model (logarithmic inhibitor vs. normalized response-variable slope) with the GraphPad Prism 6 software.

[1] = test system: non-cancerous (MCF10A) breast cell line; test: Methylene blue viability assay, MCF10A; settings: 72 hours, 10 μM peptide; FIGS. 6A-B
From the text: as §1
Methylene blue viability assay—Cells were plated in 96-wells plates at cell densities of 1.5×10^3 (EJ, DLD-1), 3×10^3 (Rat-1, HCT-116, U87), 5×10^3 (SKBR3, MCF7) and 6×10^3 (MCF10A) cells/well. On the following day, cells were treated as indicated, and grown for 72 hours. Cell number determination was performed as described previously. IC-50 values were calculated using a non-linear regression model (logarithmic inhibitor vs. normalized response-variable slope) with the GraphPad Prism 6 software.

[2] = test system: SKBR3 breast cancer cells; settings: 80 μM peptide for 72 hours; FIG. 4A
From the text: as §1, §2

Substance | MCF7 cell viability (MCF7 breast cancer cells) | viability of non-cancerous MCF10 breast cells [1] | effect of FITC-conjugation on cell viability activity compared to myr-NLS (MCF7 breast cancer cells; MCF7, FIG. 4E) | viability of SKBR3 breast cancer cells [2]
Myr-RRRHIVR(S5)RTL(S5)RLL (Myristoyl-RRRHIVR[S5]RTL[S5]RLL; staple 8-12; not fully specified; printed as Myr-RRRHIVR(S5)RTL(S5)RLL) [mN8-12] | decreased viability | decreased viability | – | –
Myr-RRRHIVRK(FITC)RTLRRLL (Myristoyl-RRRHIVRK(FITC′)RTLRRLL) [myr-NLS-FITC] | – | – | did not affect myr-NLS activity | –
Myr-RRRHIVRKRT(S5)RRL(S5) (Myristoyl-RRRHIVRKRT[S5]RRL[S5]; staple 11-15) [mN11-15] | decreased MCF7 cell viability | had no effect | – | –
RRRRRRRRHIVRKRTLRRLL (R-NLS peptide) | – | – | – | significantly reduced viability
